Data on 8 compounds can be found in ChEMBL document CHEMBL1201862, “PubChem BioAssay data set” (2004).

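96-well plates; 48 h exposure; 5 concentrations. Endpoints by linear interpolation between flanking doses. Not reached: highest tested concentration assigned. Here, GI50 denotes the concentration required for 50% inhibition of growth.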 Active and inactive are the calls of the source. Cut-off read from the data, not from the text of the source: active = GI50 up to about 1.1 µM and inactive = higher.

What is called GI50 is the concentration at which growth is held to half of that of the control.

Test systems include SF-295; PC-3; MDA-MB-231; HOP-92; TK-10; UACC-257; CAKI-1; T47D; IGROV-1; DU-145; RPMI-8226; OVCAR-4; HT-29; SW-620; A549; OVCAR-3; EKVX; CCRF-CEM; SR.
Common to all, as to experiment: DTP human tumour cell line panel, 48 h

Regarding `Cc1ccc(/N=N/c2c(O)ccc3ccccc23)c(C)c1`, the GI50 in the experiment on SF-295, with PC-3, in the experiment with MDA-MB-231, in the experiment with HOP-92, in the experiment with TK-10 and with UACC-257 was > 100 µM (inactive) each time. The GI50 with CAKI-1, with T47D, in the experiment on IGROV-1, with DU-145, in the experiment on RPMI-8226 and with OVCAR-4 was > 100 µM (inactive) each time. Also, the GI50 in the experiment on HT-29, with SW-620, in the experiment on A549 and in the experiment on OVCAR-3 was > 100 µM (inactive) in each case.

Turning to `COc1cc2c3c(n(C)c(=O)c2cc1OC)-c1cc2c(cc1/C3=C\CCCCCBr)OCO2`, the GI50 in the experiment with SF-295 is 4.56 µM (inactive); with PC-3, 28.8 µM (inactive); with MDA-MB-231, 40.3 µM (inactive); in the experiment on HOP-92, 4.52 µM (inactive); with TK-10 it was 20.6 µM (inactive); with UACC-257 it was 25.1 µM (inactive). Further, the GI50 in the experiment with CAKI-1 was 3.81 µM (inactive); in the experiment on T47D, 2.75 µM (inactive); with IGROV-1 it was 0.0546 µM (active); in the experiment with RPMI-8226, 5.41 µM (inactive); in the experiment with OVCAR-4, 26.9 µM (inactive); in the experiment on EKVX, 22.3 µM (inactive). The GI50 with CCRF-CEM was 2.38 µM (inactive); in the experiment on HT-29, 11.2 µM (inactive); in the experiment with SR it was 0.43 µM (active); in the experiment on SW-620, 8.32 µM (inactive); with A549, 9.08 µM (inactive).

Regarding `CCCc1c(Cl)nc(Cl)nc1Cl`, the GI50 with SF-295 was 4.16 µM (inactive); in the experiment on PC-3, 2.75 µM (inactive); with MDA-MB-231, 0.425 µM (active); with HOP-92, 2.65 µM (inactive); in the experiment on TK-10, 3.44 µM (inactive); with UACC-257 it was 2.13 µM (inactive). For the same compound, the GI50 is 3.08 µM (inactive) in the experiment with T47D; 0.787 µM (active) in the experiment on IGROV-1; 5.47 µM (inactive) in the experiment with DU-145; 0.432 µM (active) in the experiment with RPMI-8226; 10.2 µM (inactive) in the experiment on OVCAR-4; > 10 µM (inactive) with EKVX. For the same compound, the GI50 in the experiment with CCRF-CEM was 0.0265 µM (active); in the experiment on HT-29, 0.175 µM (active); in the experiment on SW-620, 0.16 µM (active); in the experiment with A549 it was 4.63 µM (inactive); with OVCAR-3, 1.01 µM (active).

Regarding `COc1ccc(OC)c([N+](=O)[O-])c1-c1nc2sc(C)cn2c1/C=N/N=C(N)N`, the GI50 with SF-295 was 24.3 µM (inactive); in the experiment on PC-3 it was 23.3 µM (inactive); with MDA-MB-231, 23.7 µM (inactive); with HOP-92, 17.5 µM (inactive); with TK-10, 20.6 µM (inactive); in the experiment on UACC-257 it was 18 µM (inactive). The GI50 with CAKI-1 was 28.7 µM (inactive); in the experiment with IGROV-1 it was 14.5 µM (inactive); with DU-145, 30.3 µM (inactive); in the experiment with RPMI-8226, 37.8 µM (inactive); in the experiment on OVCAR-4, 22.3 µM (inactive); with EKVX it was 82.2 µM (inactive). Also, the GI50 is 42.2 µM (inactive) in the experiment on CCRF-CEM; 25.8 µM (inactive) in the experiment on HT-29; < 0.01 µM (active) with SR; 29.9 µM (inactive) in the experiment on SW-620; 48.6 µM (inactive) with A549; 28.9 µM (inactive) in the experiment on OVCAR-3.

For `C[n+]1c2ccccc2n2c3ccccc3c(NCCc3ccccn3)c(C#N)c21`, the GI50 is 2.32 µM (inactive) in the experiment on SF-295; 2.55 µM (inactive) in the experiment on PC-3; 1.42 µM (inactive) in the experiment on MDA-MB-231; 5.97 µM (inactive) in the experiment on HOP-92; 1.14 µM (inactive) in the experiment on TK-10; 3.5 µM (inactive) in the experiment with UACC-257. The GI50 in the experiment on CAKI-1 is 1.98 µM (inactive); with T47D, 2.36 µM (inactive); in the experiment with DU-145 it was 2.72 µM (inactive); with RPMI-8226, 1.64 µM (inactive); in the experiment with OVCAR-4, 0.804 µM (active); in the experiment with EKVX, 4.06 µM (inactive). Moreover, the GI50 in the experiment on CCRF-CEM was 1.25 µM (inactive); in the experiment with HT-29, 2.99 µM (inactive); with SW-620, 0.661 µM (active); in the experiment on A549, 3.62 µM (inactive); in the experiment on OVCAR-3, 2.34 µM (inactive).

For `Brc1ccc(-c2nc(-c3ccc(Br)cc3)n(-c3ccccc3)n2)cc1`, the GI50 in the experiment with SF-295 was > 100 µM (inactive); with PC-3, > 100 µM (inactive); in the experiment on MDA-MB-231 it was > 100 µM (inactive); with HOP-92, > 100 µM (inactive); in the experiment with TK-10, > 100 µM (inactive); in the experiment with UACC-257, 81.1 µM (inactive). Moreover, the GI50 in the experiment on CAKI-1 was > 100 µM (inactive); in the experiment on T47D, 12.9 µM (inactive); in the experiment on IGROV-1 it was > 100 µM (inactive); in the experiment on DU-145, > 100 µM (inactive); with OVCAR-4, > 100 µM (inactive); with EKVX, 85.5 µM (inactive). The GI50 with CCRF-CEM was 20.6 µM (inactive); with HT-29 it was 26.9 µM (inactive); in the experiment with SW-620, > 100 µM (inactive); in the experiment with A549, 61.8 µM (inactive); with OVCAR-3, > 100 µM (inactive).

With `CC1OC2(CC(OCc3ccccc3)C1OCc1ccccc1)OCCO2` (stereo not drawn), the GI50 is 51.1 µM (inactive) in the experiment with SF-295; 59.8 µM (inactive) with PC-3; 37 µM (inactive) in the experiment on MDA-MB-231; 49.9 µM (inactive) in the experiment with HOP-92; > 100 µM (inactive) in the experiment with TK-10; 34.8 µM (inactive) in the experiment with UACC-257. Besides, the GI50 was 63.1 µM (inactive) with CAKI-1; > 100 µM (inactive) in the experiment on IGROV-1; 88.5 µM (inactive) in the experiment with DU-145; 35.2 µM (inactive) in the experiment on RPMI-8226; 76.7 µM (inactive) with OVCAR-4; 35.6 µM (inactive) with EKVX. The GI50 with CCRF-CEM is 34.4 µM (inactive); in the experiment with HT-29, 20.9 µM (inactive); in the experiment on SR, 21.1 µM (inactive); in the experiment on SW-620 it was 70 µM (inactive); in the experiment with A549, 50.7 µM (inactive); in the experiment on OVCAR-3 it was > 100 µM (inactive).

Regarding `CC(=O)O[C@H]1C(=O)[C@]2(C)[C@@H](OC(=O)OCC(O)CO)C[C@H]3OC[C@@]3(OC(C)=O)[C@H]2[C@H](OC(=O)c2ccccc2)[C@]2(O)C[C@H](OC(=O)[C@H](O)[C@@H](NC(=O)c3ccccc3)c3ccccc3)C(C)=C1C2(C)C` (stereo partly drawn) [PACLITAXEL CERIBATE], the concentration for 50% growth inhibition (GI50) in the experiment on SF-295 was < 0.01 µM (active); in the experiment on PC-3, < 0.01 µM (active); in the experiment with MDA-MB-231, < 0.01 µM (active); in the experiment with HOP-92, 22.4 µM (inactive); in the experiment with TK-10 it was 0.0875 µM (active); in the experiment on UACC-257 it was < 0.01 µM (active). Moreover, the GI50 with CAKI-1 was 0.893 µM (active); with IGROV-1, < 0.01 µM (active); with DU-145, < 0.01 µM (active); in the experiment on RPMI-8226 it was < 0.01 µM (active); in the experiment on OVCAR-4 it was 17 µM (inactive); with EKVX, 0.0387 µM (active). Moreover, the GI50 in the experiment with CCRF-CEM, in the experiment with HT-29, in the experiment on SR, with SW-620, with A549 and with OVCAR-3 was < 0.01 µM (active) in each case.
